Measured values taken from paper PMC9607599, “Dual Targeting Ligands—Histamine H3 Receptor Ligands with Monoamine Oxidase B Inhibitory Activity—In Vitro and In Vivo Evaluation” (Pharmaceutics, 2022).

Key:
human MAO B (hMAO B) [1] = biological target: T1, human MAO B (hMAO B) (Homo sapiens, UniProt P27338); assay: fluorometric MAO assay (p-tyramine substrate); format: biochemical; conditions: fluorometric MAO assay; mean ± SEM of 2–4 independent experiments
T1 sequence (P27338 1-520): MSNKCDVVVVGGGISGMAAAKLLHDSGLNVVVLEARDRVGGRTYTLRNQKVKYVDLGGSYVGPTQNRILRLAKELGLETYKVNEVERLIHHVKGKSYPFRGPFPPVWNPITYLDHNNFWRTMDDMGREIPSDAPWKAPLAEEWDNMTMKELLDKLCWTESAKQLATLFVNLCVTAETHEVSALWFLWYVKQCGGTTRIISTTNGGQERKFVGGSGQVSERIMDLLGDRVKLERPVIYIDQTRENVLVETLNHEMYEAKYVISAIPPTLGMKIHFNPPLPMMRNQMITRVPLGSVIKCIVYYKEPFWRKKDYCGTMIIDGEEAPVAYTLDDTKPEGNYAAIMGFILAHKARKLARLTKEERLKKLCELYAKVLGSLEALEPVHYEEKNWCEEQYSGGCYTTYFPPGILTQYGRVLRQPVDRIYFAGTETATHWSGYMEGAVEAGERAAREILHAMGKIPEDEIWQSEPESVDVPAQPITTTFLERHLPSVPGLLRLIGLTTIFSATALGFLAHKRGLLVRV
Description: The precise method was described in [6]. First, compounds 4–32 were screened for hMAO B inhibitory activity at 1 μM concentration by the fluorometric method. Para-tyramine (200 μM) was used as a substrate for the enzyme and safinamide (1 μM) was used as a reference compound. […] Each experiment was performed in duplicate.
All compounds were first screened for hMAO B inhibitory activity at the concentration of 1 μM. […] Based on the results, we selected compounds 9 and 13 for further analysis.

human MAO B (hMAO B) [2] = biological target: T1, human MAO B (hMAO B); assay: modality of hMAO B inhibition (Michaelis-Menten / Lineweaver-Burk); format: biochemical
Description: Modality of hMAO B inhibition was evaluated for compounds 9 and 13 and the reference safinamide according to the method described previously. Three concentrations of inhibitors, corresponding to their IC20, IC50 and IC80 values, were used. Each experiment was performed in triplicate. KM and Vmax values were calculated from Michaelis–Menten curves by nonlinear regression from the substrate. Lineweaver–Burk plots were calculated using linear regression in GraphPad Prism 6.07 (GraphPad Software, San Diego, CA, USA).
For testing modality of enzyme inhibition, we used three concentrations of inhibitors that corresponded to their IC20, IC50 and IC80 values. Substrate (p-tyramine) was used at concentrations: 0.05, 0.1, 0.5, 1.0, 1.5 and 2.0 mM.

MAO B = biological target: T2, MAO B (Homo sapiens, UniProt P27338); assay: reversibility of MAO B inhibition (reactivation by excess p-tyramine, with/without preincubation); format: biochemical; conditions: inhibitor at IC80
T2 sequence (P27338 1-520): T1 sequence (P27338 1-520)
Description: The reversibility of the MAO inhibition was tested as described in [6, 7]. […] Two variants of experiment were performed. […] After 22 min, the concentration of the substrate was increased to 200 µM and the signal was measured for 5 h.

[3] = parallel artificial membrane permeability assay (PAMPA); format: in vitro ADME
[4] = biological target: human histamine H3 receptor (hH3R) (Homo sapiens, UniProt Q9Y5N1); assay: [3H]Nα-methylhistamine radioligand binding assay in CHO-K1 cells stably expressing hH3R; set-up: expressed in transfected cells; host or cells: CHO-K1; conditions: CHO-K1 cells; [3H]Nα-methylhistamine; mean ± SEM of three independent experiments; read-out: hH3R Ki [nM] ± SEM
Description: Affinity to hH3R stably expressed in CHO-K1 [6] or HEK293 [11] cells was evaluated in a radioligand binding assay as described previously. Briefly, 10 mM stock solutions of the test compounds in DMSO were prepared. Each compound was tested at eight concentrations ranging from 10^−5 to 10^−12 M (final concentration). All assays were carried out in duplicate. […] The radioactivity was counted in MicroBeta 2 [6] or MicroBeta Trilux counter (PerkinElmer). Data were fitted to a one-site curve-fitting equation with Prism 6 (GraphPad Software, San Diego, CA, USA) and Ki values were calculated from IC50 values (from at least three experiments performed in duplicates) according to the Cheng−Prusoff equation [12].
Affinity for hH3R was evaluated in a radioligand binding assay using [^3H]N^α-methylhistamine as radioligand in CHO K1 or HEK293 cells stably expressing hH3R as described previously. […] Then, those with at least 50% inhibition for hH3R were selected for further testing (Ki evaluation). […] Compounds were tested in the binding assay in HEK293 cells.

[5] = inhibitor at IC20, IC50, IC80, p-tyramine 0.05–2.0 mM

human histamine H3 receptor (hH3R), sequence (Q9Y5N1 whole entry): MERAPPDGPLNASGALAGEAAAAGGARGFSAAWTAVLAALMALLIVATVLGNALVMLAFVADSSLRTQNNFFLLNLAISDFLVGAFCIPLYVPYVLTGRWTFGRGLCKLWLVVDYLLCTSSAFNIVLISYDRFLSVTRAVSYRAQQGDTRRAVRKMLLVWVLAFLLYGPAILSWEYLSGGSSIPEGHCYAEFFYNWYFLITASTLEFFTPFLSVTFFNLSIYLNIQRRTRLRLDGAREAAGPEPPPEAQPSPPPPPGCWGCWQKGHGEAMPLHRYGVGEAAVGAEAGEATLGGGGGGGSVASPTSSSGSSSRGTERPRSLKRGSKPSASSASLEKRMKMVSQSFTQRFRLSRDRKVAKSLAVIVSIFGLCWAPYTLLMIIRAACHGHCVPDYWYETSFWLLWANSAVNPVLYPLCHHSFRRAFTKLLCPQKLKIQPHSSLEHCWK

SMILES: CC1CCCN1CCCOc1ccc(C(C)(C)C)cc1.O=C(O)C(=O)O (stereo not shown) [Compound 13, 1-(3-(4-(tert-Butyl)phenoxy)propyl)-2-methylpyrrolidine hydrogen oxalate]
- IC50 (human MAO B (hMAO B) [1]): 4 ± 0.3 nM
- Affinity (free enzyme vs enzyme-substrate complex) (human MAO B (hMAO B) [2]): Free enzyme ≈ enzyme-substrate complex
- Mode of inhibition from kinetic values and LB plot (human MAO B (hMAO B) [2]): noncompetitive inhibition
- Lines on LB plot (human MAO B (hMAO B) [2]; Lineweaver–Burk double-reciprocal plot): Lines intersect to the left of y-axis directly on x-axis
- app. KM (human MAO B (hMAO B) [2]; [5]): No effect ^a
- app. Vmax (human MAO B (hMAO B) [2]; [5]): ↓ curvilinearly with ↑ [I]
- app. Vmax/app. KM (human MAO B (hMAO B) [2]; [5]): ↓ curvilinearly with ↑ [I]
- effect of 30 min preincubation on inhibition (preincubated vs non-preincubated) (MAO B): did not show differences between the variants
- reversibility of MAO B inhibition (MAO B; excess p-tyramine 200 µM): reversible inhibition
- permeability in PAMPA, in words [3]: high permeability
- Pe (×10^−6cm/s) ± SD ([3]; PAMPA, triplicate, breakpoint for permeable compounds Pe ≥ 1.5×10^−6 cm/s): 16.72 ×10^−6cm/s
- Papp ([3]; PAMPA, triplicate, breakpoint for permeable compounds Pe ≥ 1.5×10^−6 cm/s, read-out: Pe ± SD): 16.72 ± 0.06 ×10⁻⁶ cm/s
- Ki [4]: 25 ± 9 nM
